In US8852629B2, “Drug delivery system for hydrophobic drugs” (Valeant Pharmaceuticals International, Inc., priority 2001, dated 2014):

Experiments:
[1] = lability in an aqueous environment; assay type: physicochemical; details: must be lyophilized for storage
Description: It has been a challenge to find suitable pharmaceutical formulations for hydrophobic polypyrrolic macrocyle based photosensitizers that can be filter sterilized and freeze dried, and can also be rapidly reconstituted in an aqueous medium prior to administration, while retaining a small particle size after rehydration. Photosensitive compounds such as verteporfin (BPD-MA) and QLT 0074 (EA6) must be lyophilized for storage, because they are labile in an aqueous environment.

[2] = storage stability (potency) of cryodesiccated MA composition; assay type: physicochemical; details: room temperature
Description: Once formulated, the MA of the invention may be freeze-dried for long-term storage if desired. […] If the composition is freeze-dried, it may be packed in vials for subsequent reconstitution with a suitable aqueous solution, such as sterile water or sterile water containing a saccharide and/or other suitable excipients, just prior to use. For example, reconstitution may be by simply adding water for injection just prior to administration.

Substance: benzoporphyrin derivative monoacid ring A [BPD-MA]
- stability in an aqueous environment [1]: labile
- period over which potency was maintained [2]: at least nine
